The target of one data set is T1, human TLR9 (Homo sapiens, UniProt Q9NR96, H530R/Q688R).
T1 construct: expressed in transfected cells
T1 sequence (Q9NR96 26-1032 H530R/Q688R): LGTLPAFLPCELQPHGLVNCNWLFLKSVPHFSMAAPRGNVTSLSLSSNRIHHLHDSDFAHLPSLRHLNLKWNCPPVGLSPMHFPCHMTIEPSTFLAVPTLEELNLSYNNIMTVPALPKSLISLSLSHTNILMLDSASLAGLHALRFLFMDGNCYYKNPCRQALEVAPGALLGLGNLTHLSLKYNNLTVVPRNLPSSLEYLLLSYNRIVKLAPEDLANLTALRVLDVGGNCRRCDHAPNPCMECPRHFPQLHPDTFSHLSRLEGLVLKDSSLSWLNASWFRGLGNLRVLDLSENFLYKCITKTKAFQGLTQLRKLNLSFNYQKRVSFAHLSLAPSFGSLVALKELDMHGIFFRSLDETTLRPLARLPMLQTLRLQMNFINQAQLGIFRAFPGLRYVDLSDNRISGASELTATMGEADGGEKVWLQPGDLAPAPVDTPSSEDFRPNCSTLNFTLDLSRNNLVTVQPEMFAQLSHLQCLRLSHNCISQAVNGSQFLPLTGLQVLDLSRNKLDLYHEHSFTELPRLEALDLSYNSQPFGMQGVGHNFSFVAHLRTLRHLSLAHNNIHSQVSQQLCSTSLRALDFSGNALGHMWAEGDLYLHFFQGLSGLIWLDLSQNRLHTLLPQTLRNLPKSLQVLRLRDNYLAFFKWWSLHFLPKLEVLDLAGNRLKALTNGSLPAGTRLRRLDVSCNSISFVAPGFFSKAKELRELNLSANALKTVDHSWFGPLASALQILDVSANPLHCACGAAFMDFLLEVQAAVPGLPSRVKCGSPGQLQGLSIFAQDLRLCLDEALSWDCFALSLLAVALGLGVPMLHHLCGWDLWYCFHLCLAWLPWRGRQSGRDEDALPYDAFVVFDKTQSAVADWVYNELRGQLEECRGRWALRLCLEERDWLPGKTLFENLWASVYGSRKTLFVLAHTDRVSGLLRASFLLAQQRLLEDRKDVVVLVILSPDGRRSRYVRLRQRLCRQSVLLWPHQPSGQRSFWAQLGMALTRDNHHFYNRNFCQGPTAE
Description: NF-κB-luciferase activation in 293 cells transfected with human TLR9 (293-hTLR9-luc). The following applies: 293 cells transiently transfected with hTLR9 and NF-κB-luc; 8 h; ODN 2 μM, LPS 100 ng/ml. The format is cell-based. The source says: Since NF-κB activation is central to the IL-1/TLR signal transduction pathway (Medzhitov R et al., Mol Cell 2:253-258 (1998); Muzio M et al., J Exp Med 187:2097-2101 (1998)), cells were transfected with hTLR9 or co-transfected with hTLR9 and a NF-κB-driven luciferase reporter construct. Human fibroblast 293 cells were transiently transfected with (FIG. 1A) hTLR9 and a six-times NF-κB-luciferase reporter plasmid (NF-κB-luc, kindly provided by Patrick Baeuerle, Munich, Germany) or (FIG. 1B) with hTLR9 alone. After stimulus with CpG-ODN (2006, 2 μM, […], SEQ ID NO:112), GpC-ODN (2006-GC, 2 μM, […], SEQ ID NO:118), LPS (100 ng/ml) or media, NF-κB activation by luciferase readout (8 h, FIG. 1A) or IL-8 production by ELISA (48 h, FIG. 1B) were monitored. Results are representative of three independent experiments.
To generate stable clones expressing human TLR9, murine TLR9, or either TLR9 with the NF-κB-luc reporter plasmid, 293 cells were transfected in 10 cm plates (2×10^6 cells/plate) with 16 μg of DNA and selected with 0.7 mg/ml G418 (PAA Laboratories GmbH, Cölbe, Germany). The clones were also screened for IL-8 production or NF-κB-luciferase activity after stimulation with ODN. Four different types of clones were generated. • 293-hTLR9-luc: expressing human TLR9 and 6-fold NF-κB-luciferase reporter • 293-mTLR9-luc: expressing murine TLR9 and 6-fold NF-κB-luciferase reporter • 293-hTLR9: expressing human TLR9 • 293-mTLR9: expressing murine TLR9 […]
Because stable TLR9 transfectants mirrored primary cell responsiveness to CpG-DNA (FIGS. 4 and 5), it was hypothesized that stable transfectants could potentially discern species-specific CpG-motifs through TLR9 receptors. Therefore 293-hTLR9-luc (expressing human TLR9 and 6-fold NF-κB-luc reporter), 293-mTLR9-luc (expressing murine TLR9 and 6-fold NF-κB-luc reporter), 293-hTLR9 (expressing human TLR9) and 293-mTLR9 (expressing murine TLR9) clones were tested for CpG-DNA motif responsiveness. […] Depicted are both NF-κB-driven luciferase and IL-8 production as readout. […] After lysis of the cells luciferase can be detected photometrically based on an enzymatic reaction by luciferase which creates photons. IL-8 production was monitored using enzyme-linked immunosorbent assay (ELISA). FIG. 11 depicts clones stimulated with ODN 2006 (filled circle), ODN 2006-GC (open circle), ODN 1668 (filled triangle) or ODN 1668-GC (open triangle) at indicated concentrations and NF-κB activation or IL-8 production were measured after 10 and 48 hours, respectively. Results shown in FIG. 11 are representative of three independent experiments. Strikingly, CpG-motif sequence specificity was conferred in a species-specific manner by TLR9. Additionally, the half-maximal concentration for either 2006 or 1668 appears nearly the same as those determined on primary cells (compare FIG. 10 and FIG. 11).
Although 2006 and 1668 are discussed in terms of CpG-motif differences, they are very different in several aspects (see Table 5 for comparison). The lengths are different, 24 versus 20 nucleotides, and 2006 has four CG dinucleotides compared to one in 1668. Additional differences are the CG position relative to the 5′ and 3′ ends and also 5′ sequence differences. In order to determine if motif specificity is a quality of the motif and not the global sequence environment, for this experiment several sequences were produced holding these variables constant. As a starting point, the 1668 sequence was modified by converting the central C to T and the distal TG to CG, thereby creating a second CG in the resulting sequence 5000 (SEQ ID NO:130, Table 5). Then point nucleotide changes were made, progressing toward a 2006-like sequence, 5007 (SEQ ID NO:98). The ODN 5002 (SEQ ID NO:132) is most like 1668 with the exception that C's at positions 12 and 19 have been converted to T's. […]
Regarding TCGTCGTTTTGTCGTTTTGTCGTT [ODN 2006], the “NF-κB activation by luciferase readout” value is “responded”.

lipopolysaccharide [LPS]: the “NF-κB activation by luciferase readout” value is listed as “not”.

The same data set, now with this note: CpG-ODN 2006 compared with CpG-ODN 1668.
On to TCGTCGTTTTGTCGTTTTGTCGTT [ODN 2006], for which the “human TLR9 signaling response” value is reported as “significantly stronger”.

Staying with this data set, now noted: ODN concentration of half-maximal activation; 293-hTLR9-luc cells, NF-κB-driven luciferase readout, 12 hours; read-out: 293-hTLR9 Kac.
Consider TCGTCGTTTTGTCGTTTTGTCGTT [ODN 2006], for which the EC50 came to 0.4 µM.

Regarding “TCCATGTCGTTTTTGTCGTT (listed as DNA, chemistry not fully specified) [ODN 5007]”, the EC50 amounted to 0.7 µM.

Take “TCCATGTCGTTTTTGATGTT (listed as DNA, chemistry not fully specified) [ODN 5005]”: the EC50 was determined as 3 µM.

Regarding “TCCATGTCGTTTTTGTTGTT (listed as DNA, chemistry not fully specified) [ODN 5006]”, the EC50 came out at 3 µM.

As for “TCCATGAGCTTCCTGATGCT (listed as DNA, chemistry not fully specified) [ODN 1668-GC]”, the EC50 is above 10 µM.

For the substance “TCCATGACGTTCTTGACGCT (listed as DNA, chemistry not fully specified) [ODN 5000]”, the EC50 was found to be 10 µM.

Regarding “TCCATGACGTTCTTGACGTT (listed as DNA, chemistry not fully specified) [ODN 5001]”, the EC50 amounted to 7 µM.

For “TGCTGCTTTTGTGCTTTTGTGCTT (listed as DNA, chemistry not fully specified) [ODN 2006-GC]”, the EC50 was above 10 µM.

“TCCATGACGTTCCTGATGCT (listed as DNA, chemistry not fully specified) [ODN 1668]”: the EC50 was above 10 µM.

Regarding “TCCATGTCGTTCTTGATGTT (listed as DNA, chemistry not fully specified) [ODN 5004]”, the EC50 turned out to be 5 µM.

The values above are taken from patent publication US7820379B2, “Process for high throughput screening of CpG-based immuno-agonist/antagonist” (Coley Pharmaceutical GmbH, priority 2000, dated 2010).
